This is an account of results in ChEMBL document CHEMBL1201862, “PubChem BioAssay data set” (2004).

Test systems include SK-MEL-28; OVCAR-5; Malme-3M; MCF7; HCT-15; DU-145; OVCAR-3; NCI-H23; SK-OV-3; K562; T47D; 786-0; OVCAR-8; ACHN; M14; UACC-62; SF-539; NCI/ADR-RES; A549; U-251.
Common to all, as to assay: growth of human tumour cells (NCI), 48 h

Molecules are shown by their SMILES.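 Results reflect a 48-hour exposure of cells in 96-well plates to compound at five concentrations. GI50: concentration for 50% inhibition of growth.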 Activity calls are given as the source filed them. No stated cut-off is given here; in the data, active = GI50 up to about 1.1 µM and inactive = higher.

On to `C[C@]12CC[C@H](O)CC1=CC[C@@H]1[C@@H]2CC[C@]2(C)C(=O)/C(=C/c3ccc([N+](=O)[O-])cc3)C[C@@H]12`, for which the GI50 in the experiment with SK-MEL-28 is 22.1 µM (inactive); in the experiment on OVCAR-5, 19.2 µM (inactive); with Malme-3M, 20.1 µM (inactive); in the experiment with MCF7 it was 32.2 µM (inactive); in the experiment with HCT-15 it was 28.8 µM; in the experiment on DU-145, 13.4 µM (inactive). Further, the GI50 in the experiment with OVCAR-3 is 15.2 µM (inactive); with NCI-H23 it was 18.8 µM (inactive); in the experiment on SK-OV-3 it was 8.93 µM (inactive); in the experiment with K562 it was 59.6 µM (inactive); in the experiment with T47D it was 14.3 µM (inactive); with 786-0, 3.43 µM (inactive). In addition, the GI50 with OVCAR-8 was 3.15 µM (inactive); in the experiment with ACHN, 13.2 µM (inactive); in the experiment on M14, 26.8 µM (inactive); in the experiment on UACC-62 it was 65 µM (inactive); with SF-539, 6.92 µM (inactive); in the experiment on NCI/ADR-RES, 16.2 µM (inactive). Also, the GI50 in the experiment on A549 was 13.3 µM (inactive).
For the molecule `C/C(=N\O)c1ccc2ccc3ccccc3c2c1`, the GI50 with SK-MEL-28 was 44.2 µM (inactive); with OVCAR-5, 52.2 µM (inactive); with Malme-3M, 23.1 µM (inactive); in the experiment on MCF7, 41.1 µM (inactive); with HCT-15, 28.9 µM; in the experiment on DU-145, 33.3 µM (inactive). The GI50 in the experiment with OVCAR-3 was 34.2 µM (inactive); in the experiment on NCI-H23 it was 65.3 µM (inactive); in the experiment with SK-OV-3, > 100 µM (inactive); in the experiment with K562 it was 25.5 µM (inactive); with T47D, 56.6 µM (inactive); in the experiment on 786-0, > 100 µM (inactive). The GI50 in the experiment on OVCAR-8 is 21.6 µM (inactive); with ACHN it was 32.8 µM (inactive); in the experiment on M14, 66.5 µM (inactive); with UACC-62, 18.9 µM (inactive); in the experiment with SF-539, 17.5 µM (inactive); with U-251, 29.8 µM (inactive). Further, the results for the GI50 in the experiment with NCI/ADR-RES and with A549 were 31.3 µM (inactive) and 31.8 µM (inactive), respectively.
Take `Clc1ccc(C2Nc3ccccc3C3=NCCN32)cc1` (stereo unspecified): the GI50 in the experiment with SK-MEL-28 was 18 µM (inactive); in the experiment on OVCAR-5, 29.7 µM (inactive); with Malme-3M, 15.4 µM (inactive); in the experiment with MCF7 it was 22.3 µM (inactive); with HCT-15, 34.3 µM; in the experiment with DU-145, 39.8 µM (inactive). For the same molecule, the GI50 in the experiment with OVCAR-3 is 33.5 µM (inactive); in the experiment with NCI-H23 it was 19.5 µM (inactive); in the experiment on SK-OV-3 it was 26.1 µM (inactive); in the experiment on K562 it was 15.7 µM (inactive); with T47D, 15.6 µM (inactive); in the experiment with 786-0 it was 18.5 µM (inactive). Further, the GI50 with OVCAR-8 was 18.3 µM (inactive); in the experiment with ACHN, 35.3 µM (inactive); with M14 it was 15.1 µM (inactive); in the experiment with UACC-62, 16.9 µM (inactive); in the experiment on SF-539 it was 15.6 µM (inactive); in the experiment with U-251, 25.9 µM (inactive). The results for the GI50 with NCI/ADR-RES and in the experiment with A549 were 19.5 µM (inactive) and 32.3 µM (inactive), respectively.
For `CO[C@H]1O[C@@H]2CO[C@@H](c3ccccc3)O[C@H]2C[C@]12CCC/C=C\CO2`, the GI50 is 13.4 µM (inactive) in the experiment with SK-MEL-28; 60.1 µM (inactive) in the experiment with OVCAR-5; 14.1 µM (inactive) in the experiment with Malme-3M; 15.2 µM (inactive) in the experiment on MCF7; 13 µM in the experiment with HCT-15; 33.5 µM (inactive) with DU-145. Besides, the GI50 in the experiment with OVCAR-3 is 12.7 µM (inactive); with NCI-H23 it was 21.1 µM (inactive); in the experiment with SK-OV-3, 37.7 µM (inactive); in the experiment on K562, 13.9 µM (inactive); in the experiment with T47D, 18 µM (inactive); in the experiment with 786-0 it was 14.2 µM (inactive). The GI50 in the experiment on OVCAR-8 was 12.1 µM (inactive); in the experiment with ACHN, 15.5 µM (inactive); in the experiment with M14 it was 15.8 µM (inactive); in the experiment with UACC-62, 27.4 µM (inactive); in the experiment on SF-539 it was 14.6 µM (inactive); in the experiment on U-251, 12.6 µM (inactive). Besides, the GI50 in the experiment on NCI/ADR-RES was 21 µM (inactive); in the experiment on A549, 33.6 µM (inactive).
Regarding `CCOC(=O)c1nc2ccc(C(F)(F)F)cc2nc1Nc1ccc(Cl)c(Cl)c1`, the GI50 in the experiment with SK-MEL-28 is > 100 µM (inactive); in the experiment on OVCAR-5 it was > 100 µM (inactive); in the experiment with Malme-3M, > 100 µM (inactive); in the experiment on MCF7, > 100 µM (inactive); with HCT-15 it was 94.4 µM; in the experiment with DU-145, 70.6 µM (inactive). The GI50 in the experiment on OVCAR-3 was 38.3 µM (inactive); in the experiment with NCI-H23, > 100 µM (inactive); in the experiment on SK-OV-3, > 100 µM (inactive); in the experiment with K562, 39.4 µM (inactive); with T47D, > 100 µM (inactive); with 786-0 it was 75.3 µM (inactive). Also, the GI50 in the experiment with OVCAR-8 was 74.5 µM (inactive); in the experiment with ACHN, 97.1 µM (inactive); in the experiment with M14 it was 79.8 µM (inactive); in the experiment on UACC-62, > 100 µM (inactive); in the experiment with SF-539 it was 69.7 µM (inactive); in the experiment on NCI/ADR-RES it was > 100 µM (inactive). Further, the GI50 in the experiment on A549 is 67.8 µM (inactive).
`N=C(N)NCCCS(=O)(=O)Nc1ccc(Nc2c3ccccc3nc3cc([N+](=O)[O-])ccc23)cc1`: the GI50 in the experiment on SK-MEL-28 was 18.1 µM (inactive); with OVCAR-5, 25.4 µM (inactive); in the experiment on Malme-3M it was 10.1 µM (inactive); with MCF7, 2.53 µM (inactive); in the experiment with HCT-15, more than 85.9 µM; with DU-145 it was 9.33 µM (inactive). Besides, the GI50 is 15.6 µM (inactive) in the experiment with OVCAR-3; 4.65 µM (inactive) in the experiment on NCI-H23; 17.3 µM (inactive) with SK-OV-3; 22.3 µM (inactive) with K562; 0.728 µM (active) with T47D; 19.2 µM (inactive) in the experiment on 786-0. Moreover, the GI50 with OVCAR-8 was 20.6 µM (inactive); in the experiment with ACHN, 21.4 µM (inactive); with M14 it was 16.4 µM (inactive); with UACC-62, 12.1 µM (inactive); in the experiment with SF-539, 20.3 µM (inactive); in the experiment with U-251, 4.05 µM (inactive). Moreover, the GI50 with NCI/ADR-RES is 19.6 µM (inactive); in the experiment on A549, 5.31 µM (inactive).
Take `O=P12N(CCN1c1ccccc1)CCN2c1ccccc1`: the GI50 is > 100 µM (inactive) with SK-MEL-28; > 100 µM (inactive) in the experiment on OVCAR-5; > 100 µM (inactive) in the experiment with Malme-3M; > 100 µM (inactive) in the experiment with MCF7; more than 100 µM in the experiment with HCT-15; > 100 µM (inactive) in the experiment with DU-145. Moreover, the GI50 in the experiment with OVCAR-3, in the experiment on NCI-H23, in the experiment on SK-OV-3, with K562, in the experiment on T47D and in the experiment with 786-0 was > 100 µM (inactive) each time. For the same molecule, the GI50 in the experiment with OVCAR-8 was > 100 µM (inactive); in the experiment with ACHN, > 100 µM (inactive); in the experiment on M14, 66.8 µM (inactive); in the experiment with UACC-62, > 100 µM (inactive); in the experiment with SF-539 it was > 100 µM (inactive); with U-251 it was > 100 µM (inactive). In addition, the GI50 with NCI/ADR-RES and in the experiment on A549 was > 100 µM (inactive) throughout.
As to `O=C(NCCc1ccc(F)cc1)c1cc(/C=C/c2cc(O)ccc2O)ccc1O`, the GI50 in the experiment on SK-MEL-28 was 3.21 µM (inactive); with OVCAR-5 it was 6.64 µM (inactive); with Malme-3M, 2.42 µM (inactive); in the experiment with MCF7, 2.45 µM (inactive); in the experiment on HCT-15, 2.26 µM; in the experiment on DU-145 it was 10.3 µM (inactive). Moreover, the GI50 is 2.56 µM (inactive) with OVCAR-3; 3.28 µM (inactive) with NCI-H23; 13 µM (inactive) in the experiment with SK-OV-3; 3.03 µM (inactive) in the experiment with K562; 2.24 µM (inactive) in the experiment on T47D; 2.24 µM (inactive) with 786-0. For the same molecule, the GI50 is 3.29 µM (inactive) in the experiment on OVCAR-8; 2.01 µM (inactive) with ACHN; 3.67 µM (inactive) in the experiment with M14; 2.12 µM (inactive) with UACC-62; 2.36 µM (inactive) with SF-539; 2.1 µM (inactive) with U-251. Also, the GI50 was 2.69 µM (inactive) in the experiment with NCI/ADR-RES and 11.1 µM (inactive) in the experiment with A549.
On to `CC1=NN(c2nc(N)nc(/C(C#N)=C\c3ccc(-c4ccc([N+](=O)[O-])cc4)o3)n2)C(C)(C)C1`, for which the GI50 with SK-MEL-28 was > 100 µM (inactive); in the experiment on OVCAR-5, > 100 µM (inactive); with Malme-3M, > 100 µM (inactive); in the experiment on MCF7, > 100 µM (inactive); in the experiment on HCT-15 it was more than 100 µM; in the experiment with DU-145, > 100 µM (inactive). In addition, the GI50 in the experiment on OVCAR-3, in the experiment with NCI-H23, with SK-OV-3, in the experiment with K562, in the experiment with T47D and with 786-0 was > 100 µM (inactive) throughout. In addition, the GI50 was > 100 µM (inactive) in the experiment on OVCAR-8; > 100 µM (inactive) with ACHN; > 100 µM (inactive) in the experiment on M14; > 100 µM (inactive) in the experiment on UACC-62; > 100 µM (inactive) in the experiment on SF-539; 39.5 µM (inactive) in the experiment on U-251. Besides, the GI50 in the experiment with NCI/ADR-RES and in the experiment on A549 was > 100 µM (inactive) in each case.
As for `BrC(=C(c1ccc(OC2CCCCO2)cc1)c1ccc(OC2CCCCO2)cc1)c1ccccc1` (stereo unspecified), the GI50 was > 100 µM (inactive) in the experiment on SK-MEL-28; > 100 µM (inactive) in the experiment with Malme-3M; > 100 µM (inactive) in the experiment with MCF7; more than 100 µM in the experiment with HCT-15; > 100 µM (inactive) in the experiment on DU-145; > 100 µM (inactive) in the experiment on OVCAR-3. For the same molecule, the GI50 in the experiment on NCI-H23, in the experiment with SK-OV-3, in the experiment with K562, in the experiment on T47D, in the experiment on 786-0 and with OVCAR-8 was > 100 µM (inactive) throughout. The GI50 with M14, in the experiment on UACC-62, in the experiment on SF-539, with U-251, in the experiment with NCI/ADR-RES and in the experiment with A549 was > 100 µM (inactive) throughout.
